Activity calls are given as the source filed them. The rule behind the calls is not given here.
How the values were obtained:
[1] = molecular target: Histone-lysine N-methyltransferase ASH1L (Homo sapiens, UniProt Q9NR48); experiment: Inhibition of ASH1L SET-BAH construct (unknown origin) (2069 to 2833 residues) using SAM as substrate incubated for 1 hr and measured after 45 mins by Beckman scintillation counter method
SEM cells = experiment: Antiproliferative activity against human SEM cells measured after 14 days by MTT assay; type: functional; conditions: 336 h, time 14 day
K562 = experiment: Antiproliferative activity against human K562 cells measured after 14 days by MTT assay; type: functional; conditions: K562, 336 h, time 14 day
KOPN-8 = experiment: Antiproliferative activity against human KOPN-8 cells measured after 14 days by MTT assay; type: functional; conditions: KOPN-8, 336 h, time 14 day
MOLM-13 = experiment: Antiproliferative activity against human MOLM-13 cells measured after 14 days by MTT assay; type: functional; conditions: MOLM-13, 336 h, time 14 day
MV4-11 [2] = experiment: Antiproliferative activity against human MV4-11 cells measured after 14 days by MTT assay; type: functional; conditions: MV4-11, 336 h, time 14 day
MV4-11 [3] = experiment: Antitumor activity in human MV4-11-Luc cells xenografted female NSG mouse assessed as decrease in leukemia progression at 25 mg/kg, ip administered twice a day for 21 days; type: functional, organism-based; conditions: time 21.0 day
MV4-11 [4] = experiment: Induction of human MV4-11 cell differentiation at 6 to 12 uM measured after 7 days; type: functional, cell-based; conditions: dose 6-12 µM, time 7.0 day
[5] = Cytotoxicity against human CD34-positive cells; type: toxicity, cell-based, CD34-positive (myeloid/lymphoid) cell

Compound | IC50 [1] | also measured
C[C@@H]1CN[C@H](C(=O)NCc2ccc3c(-c4cccc(C(N)=S)c4)cn(C4CCN(S(=O)(=O)C(F)(F)F)CC4)c3c2)C1 | < 20 µM | 
NC(=S)c1cccc(-c2cn(C3CCN(S(=O)(=O)C(F)(F)F)CC3)c3cc(CNC(=O)[C@@H]4C[C@H](O)CN4)ccc23)c1 | < 20 µM | 
CC(C)S(=O)(=O)N1CCC(n2cc(-c3cccc(C(N)=S)c3)c3ccc(CNC(=O)C4CN(C)C4)cc32)CC1 | < 20 µM | 
CC1CN(S(C)(=O)=O)CCC1n1cc(-c2cccc(C(N)=S)c2)c2ccc(CNc3nnc(N)s3)cc21 (configuration not stated) | < 20 µM | 
NC(=S)c1cccc(-c2cn(C3CCN(S(=O)(=O)C(F)(F)F)CC3)c3cc(CNC(=O)NCC4CCN4)ccc23)c1 (configuration not stated) | < 20 µM | 
CCC(=O)Nc1ccc2c(-c3cccc(C(N)=S)c3)cn(CC(CF)CF)c2c1 | < 20 µM | 
CC(C)S(=O)(=O)N1CCC(n2cc(-c3cccc(C(N)=S)c3)c3ccc(CNc4nnc(N)s4)cc32)CC1 |  | GI50 (SEM cells): 2 µM; GI50 (K562): > 50 µM; GI50 (KOPN-8): 5 µM; GI50 (MOLM-13): 5.5 µM; GI50 (MV4-11 [2]): 2.5 µM
CCN1CC(C(=O)NCc2ccc3c(-c4cccc(C(N)=S)c4)cn(C4CCN(c5nccs5)CC4)c3c2)C1 | < 20 µM | 
NC(=S)c1cccc(-c2cn(C3CCOCC3)c3cc(CNc4nnc(N)[nH]4)ccc23)c1 | < 20 µM | 
NC(=S)c1cccc(-c2cn(CC(CF)CF)c3cc(NC(=O)Cc4nccs4)ccc23)c1 | < 20 µM | 
NC(=S)c1cccc(-c2cn(C3CCN(c4nccs4)CC3)c3cc(CNC(=O)c4c[nH]c5ncccc45)ccc23)c1 | < 20 µM | 
CC1CC(n2cc(-c3cccc(C(N)=S)c3)c3ccc(CNc4nnc(N)s4)cc32)CCO1 (configuration not stated) | < 20 µM | 
CC(C)S(=O)(=O)N1CCC(n2cc(-c3cccc(C(N)=S)c3)c3ccc(CNC(=O)C4CCN4)cc32)CC1 (configuration not stated) | < 20 µM | 
NC(=S)c1cccc(-c2cn(C3CCN(S(=O)(=O)CCCNC(=O)CCCC[C@@H]4SC[C@@H]5NC(=O)N[C@@H]54)CC3)c3cc(CNC(=O)c4c[nH]c5ccccc45)ccc23)c1 | < 20 µM | 
NC(=S)c1cccc(-c2cn(CC(CF)CF)c3cc(NC(=O)CCc4nccs4)ccc23)c1 | < 20 µM | 
CC(C)S(=O)(=O)N1CCC(n2cc(-c3cccc(C(N)=S)c3)c3ccc(NC(=O)CCCC[C@@H]4SC[C@@H]5NC(=O)N[C@@H]54)cc32)CC1 | < 20 µM | 
NC(=S)c1cccc(-c2cn(C3CCN(S(=O)(=O)C(F)(F)F)CC3)c3cc(CNC(=O)C4CNC4)ccc23)c1 |  | Activity (MV4-11 [3]): Active
CCCCCCN1CC(C(=O)NCc2ccc3c(-c4cccc(C(N)=S)c4)cn(C4CCN(S(=O)(=O)C(F)(F)F)CC4)c3c2)C1 | < 20 µM | 
CC(C)S(=O)(=O)N1CCC(n2cc(-c3cccc(C(N)=S)c3)c3ccc(CNC(=O)C4CNC4)cc32)CC1 | < 20 µM | 
CS(=O)(=O)N1CCC(n2cc(-c3cccc(C(N)=S)c3)c3ccc(CNC(=O)Cc4c[nH]cn4)c(Cl)c32)CC1 | < 20 µM | 

Compound | IC50 [1] | also measured
COCCC(=O)Nc1ccc2c(-c3cccc(C(N)=S)c3)cn(C3CCC(F)(F)CC3)c2c1 | < 20 µM | 
CC(C)S(=O)(=O)N1CCC(n2cc(-c3cccc(C(N)=S)n3)c3ccc(CNc4nnc(N)s4)cc32)CC1 | < 20 µM | 
NC(=S)c1cccc(-c2cn(C3CCC(F)(F)CC3)c3cc(CNC(=O)C4CNC4)ccc23)c1 | < 20 µM | 
COc1cccc2[nH]cc(-c3cccc(C(N)=S)c3)c12 | < 20 µM | 
COc1ccc(Cn2cnc([N+](=O)[O-])c2NCc2ccc3c(-c4cccc(C(N)=S)c4)cn(C4CCOCC4)c3c2)cc1 | < 20 µM | 
CS(=O)(=O)N1CCC(n2cc(-c3cccc(C(N)=S)c3)c3ccc(NC(=O)CCCCCNC(=O)c4ccc5c(c4)C(=O)OC54c5ccc(O)cc5Oc5cc(O)ccc54)cc32)CC1 | < 20 µM | 
NC(=S)c1cccc(-c2cn(C3CCN(S(=O)(=O)C(F)(F)F)CC3)c3cc(CNC(=O)[C@@H]4C[C@H](F)CN4)ccc23)c1 | < 20 µM | 
NC(=S)c1cccc(-c2cn(C3CCN(c4nccs4)CC3)c3cc(CNC(=O)C4CNC4)ccc23)c1 | < 20 µM | 
CC(=O)Nc1ccc2c(-c3cccc(C(N)=S)c3)cn(C3CCN(S(=O)(=O)C(F)(F)F)CC3)c2c1 | < 20 µM | 
CCCCCCN1CC(C(=O)NCc2ccc3c(-c4cccc(C(N)=S)c4)cn(C4CCN(S(C)(=O)=O)CC4)c3c2)C1 | < 20 µM | 
CNC(=O)NCc1ccc2c(-c3cccc(C(N)=S)c3)cn(C3CCN(S(=O)(=O)C(F)(F)F)CC3)c2c1 | < 20 µM | 
COc1ccc(Cn2cnc(NCc3ccc4c(-c5cccc(C(N)=S)c5)cn(C5CCOCC5)c4c3)c2[N+](=O)[O-])cc1 | < 20 µM | 
CCCOC1CNC(C(=O)NCc2ccc3c(-c4cccc(C(N)=S)c4)cn(C4CCN(S(=O)(=O)C(C)C)CC4)c3c2)C1 (configuration not stated) | < 20 µM | 
NC(=S)c1cccc(-c2cn(C3CCC(F)(F)CC3)c3cc(NC(=O)CCCCCNC(=O)c4ccc5c(c4)C(=O)OC54c5ccc(O)cc5Oc5cc(O)ccc54)ccc23)c1 | < 20 µM | 
CN1CC(C(=O)NCc2ccc3c(-c4cccc(C(N)=S)c4)cn(C4CCN(S(=O)(=O)C(F)(F)F)CC4)c3c2Cl)C1 | < 20 µM | 
CC(C)S(=O)(=O)N1CCC(n2cc(-c3cccc(C(N)=S)c3)c3ccc(N)cc32)CC1 | < 20 µM | 
NC(=S)c1cccc(-c2cn(C3CCN(S(=O)(=O)C(F)(F)F)CC3)c3cc(CNc4nnc(N)s4)ccc23)c1 | < 20 µM | 
NC(=S)c1cccc(-c2cn(C3CCC(F)(F)CC3)c3c(Cl)c(N)ccc23)c1 | < 20 µM | 
NC(=S)c1cccc(-c2cn(C3CCN(S(=O)(=O)C(F)(F)F)CC3)c3cc(NC(=O)CCOCCOCCOCCOCCOCCOCCNC(=O)CCCC[C@@H]4SC[C@@H]5NC(=O)N[C@@H]54)ccc23)c1 | < 20 µM | 
NC(=S)c1cccc(-c2cn(C3CCOCC3)c3cc(CNc4cc[nH]n4)ccc23)c1 | < 20 µM | 

Compound | IC50 [1] | also measured
CC1CC(n2cc(-c3cccc(C(N)=S)c3)c3ccc(N)cc32)CCN1S(C)(=O)=O (configuration not stated) | < 20 µM | 
COCCC(=O)Nc1ccc2c(-c3cccc(C(N)=S)c3)cn(CC(CF)CF)c2c1 | < 20 µM | 
CS(=O)(=O)N1CC2CCC1CC2n1cc(-c2cccc(C(N)=S)c2)c2ccc(N)cc21 (configuration not stated) | < 20 µM | 
Cc1cc(N2CCC(n3cc(-c4cccc(C(N)=S)c4)c4ccc(CNc5nnc(N)s5)cc43)CC2)n(C)n1 | < 20 µM | 
NC(=S)c1cccc(-c2cn(C3CCN(c4nccs4)CC3)c3cc(CNc4nnc(N)s4)ccc23)c1 | < 20 µM | 
CS(=O)(=O)N1CCC(n2cc(-c3cccc(C(N)=S)c3)c3ccc(NC(=O)CCOCCOCCOCCOCCOCCOCCOCCOCCNC(=O)CCCC[C@@H]4SC[C@@H]5NC(=O)N[C@@H]54)cc32)CC1 | < 20 µM | 
CC1CN(S(C)(=O)=O)CCC1n1cc(-c2cccc(C(N)=S)c2)c2ccc(CNC(=O)C3CN(C)C3)cc21 (configuration not stated) | < 20 µM | 
CS(=O)(=O)Nc1ccc2c(-c3cccc(C(N)=S)c3)cn(C3CCC(F)(F)CC3)c2c1 | < 20 µM | 
CC(C)S(=O)(=O)N1CCC(n2cc(-c3cccc(C(N)=S)c3)c3ccc(N4CCCC4=O)cc32)CC1 | < 20 µM | 
CS(=O)(=O)N1CCC(n2cc(-c3cccc(C(N)=S)c3)c3ccc(NC(=O)CCCCCNC(=O)CCCC[C@@H]4SC[C@@H]5NC(=O)N[C@@H]54)cc32)CC1 | < 20 µM | 
CC(C)S(=O)(=O)N1CCC(n2cc(-c3cccc(C(N)=S)c3)c3ccc(CNC(=O)C4CCCN4)cc32)CC1 (configuration not stated) | < 20 µM | 
NC(=S)c1cccc(-c2cn(C3CCN(S(=O)(=O)C(F)(F)F)CC3)c3cc(CNC(=O)C4CNCCN4)ccc23)c1 (configuration not stated) | < 20 µM | 
CS(=O)(=O)N1CCC(n2cc(-c3cccc(C(N)=S)c3)c3ccc(NC(=O)CCOCCOCCOCCOCCNC(=O)CCCC[C@@H]4SC[C@@H]5NC(=O)N[C@@H]54)cc32)CC1 | < 20 µM | 
CC1CN(S(C)(=O)=O)CCC1n1cc(-c2cccc(C(N)=S)c2)c2ccc(N)cc21 (configuration not stated) |  | Activity (MV4-11 [4]): Active; GI50 [5]: > 50 µM; GI50 (K562): > 25 µM; GI50 (KOPN-8): 2.5 µM; GI50 (MOLM-13): 2.7 µM
CCC(=O)Nc1ccc2c(-c3cccc(C(N)=S)c3)cn(C3CCN(S(=O)(=O)C(C)C)CC3)c2c1 | < 20 µM | 
CN(C)c1cccc2c(S(=O)(=O)NCCCCCCCCC(=O)Nc3ccc4c(-c5cccc(C(N)=S)c5)cn(C5CCC(F)(F)CC5)c4c3)cccc12 | < 20 µM | 
CCCOC1CCNC1C(=O)NCc1ccc2c(-c3cccc(C(N)=S)c3)cn(C3CCN(S(=O)(=O)C(C)C)CC3)c2c1 (configuration not stated) | < 20 µM | 
CS(=O)(=O)Nc1ccc2c(-c3cccc(C(N)=S)c3)cn(C3CCOCC3)c2c1 | < 20 µM | 
COCCN1CC(C(=O)NCc2ccc3c(-c4cccc(C(N)=S)c4)cn(C4CCN(S(C)(=O)=O)CC4)c3c2)C1 | < 20 µM | 
